According to patent US5866380A, “Methods for bioconversion of ferulic acid to vanillic acid or vanillin and for the bioconversion of vanillic acid to vanillin using filamentous fungi” (Institut National De La Recherche Agronomique-I.N.R.A., priority 1994, dated 1999):

Legend:
[1] = system: fungi; assay: toxicity of ferulic acid, vanillic acid and vanillin to the fungi; type: cell-based, filamentous fungi; details: for concentration toxic to the fungi: concentration in the culture
[2] = binding of vanillin by nonionic resin XAD2; type: physicochemical
[3] = binding of produced vanillin to XAD2 resin in Phanerochaete chrysosporium culture (experiment 2); type: physicochemical; details: experiment 2, XAD2 10% (weight/volume), 6 days of growth
Method: The strain used is the Phanerochaete chrysosporium strain MIC 247, deposited on 31st Aug. 1994 with the Collection Nationale de Culture de Microorganismes under the number I-1471. This strain was cultured as described in Example 1 above.
Vanillic acid was added sequentially, namely: 0.3 g/l at the end of 3 days of culture, then 0.3 g/l every day.
For experiment 2, sterile resin XAD2 (Amberlite) is added in the proportion of 10% (weight/volume) after 3 days+6 h of culture of the fungus, that is to say 6 h after adding vanillic acid (at a concentration of 300 mg/l).
Vanillic acid and its metabolites are assayed as described in Example 1 above.

| Structure (SMILES) | concentration toxic to the fungi [1] | toxicity for the metabolism of the fungus (in words) ([1]; strain that accumulates vanillin (Nidulariales)) | vanillin bound by the resin [2] | vanillin produced that has been bound to the resin [3] |
| --- | --- | --- | --- | --- |
| COc1cc(/C=C/C(=O)O)ccc1O [ferulic acid] | above 2 g/l | – | – | – |
| COc1cc(C(=O)O)ccc1O [vanillic acid] | above 2 g/l | – | – | – |
| COc1cc(C=O)ccc1O [vanillin] | above 2 g/l | very quickly becomes toxic for the metabolism of the fungus | 98% | 94% |
